From patent publication US10905665B2, “Chemical modulators of signaling pathways and therapeutic use” (Duke University, priority 2015, dated 2021) come the findings set out here.

Molecules are shown by their SMILES. Like-named read-outs stand apart in the source and are kept apart here. Some results are limits rather than exact numbers.

Common to all, as to assay type: cell-based
The target in test [1] is T1, Frizzled1-GFP (Homo sapiens, UniProt Q9UP38).
T1 construct: expressed in transfected cells
T1 sequence (Q9UP38 70-647): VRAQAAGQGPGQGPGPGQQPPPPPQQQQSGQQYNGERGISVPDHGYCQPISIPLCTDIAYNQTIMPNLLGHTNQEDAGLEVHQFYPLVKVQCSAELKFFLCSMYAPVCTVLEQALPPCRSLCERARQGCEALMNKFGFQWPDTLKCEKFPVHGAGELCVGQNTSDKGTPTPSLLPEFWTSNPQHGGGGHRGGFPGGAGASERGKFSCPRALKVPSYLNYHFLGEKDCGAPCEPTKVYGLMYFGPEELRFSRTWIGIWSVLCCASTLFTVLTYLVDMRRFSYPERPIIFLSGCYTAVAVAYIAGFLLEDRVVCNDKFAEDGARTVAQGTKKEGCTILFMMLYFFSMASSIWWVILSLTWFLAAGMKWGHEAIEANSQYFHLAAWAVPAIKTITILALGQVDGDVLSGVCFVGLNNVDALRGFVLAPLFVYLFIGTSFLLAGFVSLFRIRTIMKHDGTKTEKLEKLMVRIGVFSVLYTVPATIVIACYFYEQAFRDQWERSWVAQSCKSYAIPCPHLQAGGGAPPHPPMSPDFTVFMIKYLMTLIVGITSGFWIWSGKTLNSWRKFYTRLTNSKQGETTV
Nature of the test: Frizzled internalization assay (Fzd1-GFP). More on the design: key: Punctate similar to control=0; trace amount of punctate greater than control=1; moderate=3; strong=5. The following applies: 6 hours, 0-5 point scale. As for the experimental part:
The Fzd1-GFP assay was performed following a procedure similar to previously published work (Chen, M. Y.; Wang, J. B.; Lu, J. Y.; Bond, M. C.; Ren, X. R.; Lyerly, H. K.; Barak, L. S.; Chen, W. Biochemistry 2009, 48, 10267). Cells stably expressing Frizzled1-GFP plated in confocal dishes were treated, after 24 hours, with 12.5 μM of test compound or DMSO for 6 hours at 37° C. followed by fixation with 4% paraformaldehyde. The cells were then examined by microscopy using a LSM 510-Meta confocal microscope (Carl Zeiss, Thornwood, N.Y., USA) equipped with 40× and 100× apo chromat objectives. YFP was excited using a 488-nm argon laser line. Images were processed using the LSM software Image Browser (CarlZeiss, Thornwood, N.Y., USA). Plates were read twice in blinded fashion using a 0-5 point scale. ^aPunctate similar to control=0, trace amount of punctate greater than control=1, moderate=3, strong=5.

Test [2] has as its system Wnt/β-catenin transcription. In words: Wnt-3A-stimulated TOPFlash reporter assay in HEK293 cells. The following applies: Wnt-3A conditioned medium, 8 hour treatment, read-out: Inhibition Wnt/β-catenin transcription TopFlash IC50. As for the experimental part: Stably transfected cells were seeded in 100 μl of cell growth medium/well in 96-well plates at 100% confluency. Fifty microliters of Wnt-3A conditioned medium containing the chemical compounds to be tested or DMSO was added to each well. After an 8 hour treatment, the cells were washed once with PBS and lysed with 55 μl of Passive Lysis Buffer supplied in the Dual-Luciferase Reporter Assay kit (Promega, Madison, Wis.). Twenty-five microliters of cell lysate was used for measuring luciferase activity in a 96-well plate reader (FluoStar Optima, BMG Labtech, Chicago, Ill.). Data were fit using GraphPad Prism (mean±SEM, n>=2).

In test [3] the test system is β-catenin. Nature of the test: Western blot of cytosolic β-catenin in HCT-116 cells. The following applies: Homo sapiens, 2.0 μM compound, read-out: Remaining cytosolic β-catenin. As for the experimental part: Western blots were performed following a procedure similar to previously published work (Osada, T.; Chen, M. Y.; Yang, X. Y.; Spasojevic, I.; Vandeusen, J. B.; Hsu, D.; Clary, B. M.; Clay, T. M.; Chen, W.; Morse, M. A.; Lyerly, H. K. Cancer Research 2011, 71, 4172). HCT-116 cells were grown to about 80% confluency in poly-D-lysine coated six-well plates 48 hours before treatment and followed by 2.0 μM compounds or DMSO incubation for 18 hours in growth medium. After treatment, the cytosolic fraction was isolated as described (Osada, T.; Chen, M. Y.; Yang, X. Y.; Spasojevic, I.; Vandeusen, J. B.; Hsu, D.; Clary, B. M.; Clay, T. M.; Chen, W.; Morse, M. A.; Lyerly, H. K. Cancer Research 2011, 71, 4172). Immunoblots using antibodies to […] (E-5, Santa Cruz Biotechnology catalog number sc-7963) was used to detect β-catenin protein levels in the cytosol, and immunoblots using antibodies to β-actin (C-4, Santa Cruz Biotechnology, catalog number SC-47778) was used for loading controls.
Inhibition of Wnt signaling was determined by analyzing the reduction of cytosolic β-catenin by Western blot (FIG. 1, 2).

The test system of test [4] is colon cancer cell line HCT116. In words: Cell proliferation assay (MTS). The following applies: for IC50: Homo sapiens, HCT-116, HCT116, 72 hours, 0.04 to 10 μM, read-out: Anti-proliferation IC50 (μM), MTS assay; for Anti-proliferation activity, MTS assay, in words: HCT116, up to 10 μM. How it is done: The colon cancer cell line HCT116 was used in the cell proliferation assay. The cells were plated in 100 μl of growing medium/well in 96-well plates at 5,000 cells per well and treated with compounds from 0.04 to 10 μM for 72 hours, after which point the cells were analyzed by colorimetric MTS assay (Promega, Madison, Wis., USA). Data were fit using GraphPad Prism (mean±SEM, n 3).

With `O=C(Nc1ccc(Cl)cc1Cl)c1cc(Cl)ccc1O` [Compound 14, 5-chloro-N-(2,4-dichlorophenyl)-2-hydroxybenzamide], in test [1], the “Fzd1-GFP internalization @12.5 μM” value was 5. In addition, the IC50 in test [2] (Homo sapiens, HEK293, 8 h) worked out at 420 ± 100 nM; in test [4], 1.18 ± 0.14 µM. In test [3] (HCT-116, 18 h), the activity at 2 µM stood at 7%.
Take `CCOC(=O)Oc1ccc(Cl)cc1C(=O)Nc1ccc(C(F)(F)F)cc1Cl` [Compound 70, 4-Chloro-2-((2-chloro-4-(trifluoromethyl)phenyl)carbamoyl)phenyl ethyl carbonate]: the “Fzd1-GFP internalization @12.5 μM” value in test [1] came to 5. Moreover, the IC50 in test [2] (Homo sapiens, HEK293) was found to be 340 ± 120 nM; in test [4], 0.51 ± 0.06 µM. For the same compound, in test [3] (18 hours), the activity at 2 µM is 8%.
As to `O=c1oc2ccc(Cl)cc2c(=O)n1-c1ccc(C(F)(F)F)cc1Cl` [Compound 73, 6-Chloro-3-(2-chloro-4-(trifluoromethyl)phenyl)-2H-benzo[e][1,3]oxazine-2,4(3H)-dione], the “Fzd1-GFP internalization @12.5 μM” value in test [1] is on record as 5. Besides, the IC50 was 330 ± 100 nM in test [2] (Homo sapiens, HEK293, 8 h) and 0.55 ± 0.07 µM in test [4]. Moreover, in test [3] (HCT-116, 18 h), the activity at 2 µM was 9%.
For the compound `CN(C(=O)c1cc(Cl)ccc1O)c1ccc(C(F)(F)F)cc1` [Compound 24, 5-chloro-2-hydroxy-N-methyl-N-(4-(trifluoromethyl)phenyl)benzamide], the “Fzd1-GFP internalization @12.5 μM” value in test [1] was determined as 0. In addition, the IC50 was over 12000 nM in test [2] (Homo sapiens, HEK293, 8 h) and over 10 µM in test [4]. Further, in test [3] (HCT-116, 18 h), the activity at 2 µM is 96%.
Take `O=C(Nc1c(Cl)cccc1Cl)c1cc(Cl)ccc1O` [Compound 18, 5-chloro-N-(2,6-dichlorophenyl)-2-hydroxybenzamide]: in test [1], the “Fzd1-GFP internalization @12.5 μM” value is on record as 0. The IC50 in test [2] (Homo sapiens, HEK293, 8 h) was over 12000 nM. The activity at 2 µM in test [3] (HCT-116, 18 h) amounted to 100%. Moreover, in test [4], the “Anti-proliferation activity, MTS assay, in words” value is on record as “no effect” and the IC50 was over 10 µM.
`O=C(Nc1ccc(C(F)(F)F)cc1)c1cc(Cl)ccc1O` [Compound 8, 5-chloro-2-hydroxy-N-(4-(trifluoromethyl)phenyl)benzamide]: the “Fzd1-GFP internalization @12.5 μM” value in test [1] is reported as 5. Further, the IC50 in test [2] (Homo sapiens, HEK293, 8 h) was found to be 290 ± 60 nM; in test [4] it was 0.67 ± 0.09 µM. Further, the activity at 2 µM in test [3] (HCT-116, 18 h) was 7%.
Regarding `O=S(=O)(Nc1ccc(C(F)(F)F)cc1Cl)c1cc(Cl)ccc1O` [Compound 58, 5-Chloro-N-(2-chloro-4-(trifluoromethyl)phenyl)-2-hydroxybenzenesulfonamide], the “Fzd1-GFP internalization @12.5 μM” value in test [1] is 1. In test [2] (Homo sapiens, HEK293, 8 h), the IC50 stood at 2570 ± 270 nM. In addition, in test [4], the “Anti-proliferation activity, MTS assay, in words” value is given as “no effect”.
As for `CC(=O)c1ccc(NC(=O)c2cc(Cl)ccc2O)cc1` [Compound 3, N-(4-acetylphenyl)-5-chloro-2-hydroxybenzamide], in test [1], the “Fzd1-GFP internalization @12.5 μM” value amounted to 0. For the same compound, the IC50 in test [2] (Homo sapiens, HEK293, 8 h) turned out to be 6420 ± 510 nM.
For `O=C(Nc1ccccc1Cl)c1cc(Cl)ccc1O` [Compound 13, 5-chloro-N-(2-chlorophenyl)-2-hydroxybenzamide], the “Fzd1-GFP internalization @12.5 μM” value in test [1] was 1. For the same compound, the IC50 in test [2] (Homo sapiens, HEK293, 8 h) stood at 3050 ± 870 nM.
In the case of `O=C(Nc1ccccc1)c1cc(Cl)ccc1O` [Compound 1, 5-chloro-2-hydroxy-N-phenylbenzamide], in test [1], the “Fzd1-GFP internalization @12.5 μM” value came to 0. Moreover, in test [2] (Homo sapiens, HEK293, 8 h), the IC50 was 11800 nM.
On to `O=C(Nc1ccc([N+](=O)[O-])cc1)c1cc(Cl)ccc1O` [Compound 2, 5-chloro-2-hydroxy-N-(4-nitrophenyl)benzamide], for which, in test [1], the “Fzd1-GFP internalization @12.5 μM” value is 5. In addition, the IC50 in test [2] is 990 ± 320 nM.
With `O=C(Nc1cc(Cl)ccc1Cl)c1cc(Cl)ccc1O` [Compound 15, 5-chloro-N-(2,5-dichlorophenyl)-2-hydroxybenzamide], the “Fzd1-GFP internalization @12.5 μM” value in test [1] is 5. Moreover, the IC50 in test [2] (Homo sapiens, HEK293, 8 h) was found to be 750 ± 130 nM.
As for `O=C(Nc1ccc(F)cc1)c1cc(Cl)ccc1O` [Compound 19, 5-chloro-N-(4-fluorophenyl)-2-hydroxybenzamide], in test [1], the “Fzd1-GFP internalization @12.5 μM” value is 0. Moreover, in test [2] (Homo sapiens, HEK293, 8 h), the IC50 turned out to be 3840 ± 290 nM.
Take `O=C(Nc1ccc(F)cc1F)c1cc(Cl)ccc1O` [Compound 20, 5-chloro-N-(2,4-difluorophenyl)-2-hydroxybenzamide]: the “Fzd1-GFP internalization @12.5 μM” value in test [1] is 2. Further, the IC50 in test [2] (Homo sapiens, HEK293, 8 h) is 4020 ± 790 nM.
